Measurements from patent US8207176B2 (Glaxo Group Limited, priority 2005, dated 2012).

Legend:
[1] = test system: influx of neutrophils to the lung in LPS-challenged rats; test: Rat LPS neutrophilia model; type: in vivo; details: intratracheal, LPS aerosol 100 ug/ml 15 min, lavage 4 hours later, in at least one of the range of conditions tested, significant p<0.05, nonsignificant p>0.05
In short: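 Compound was given intratracheally (200 ul, suspension or dry powder) 15 min–24 hours before a 15 min aerosol of LPS (100 ug/ml). Bronchoalveolar lavage was taken 4 hours after challenge for differential cell counts. Values are % inhibition of neutrophils versus no-compound controls at a given concentration and pretreat time.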

[2] = molecular target: T1, Recombinant human p38α (MKK6-activated) (Homo sapiens, UniProt Q16539); test: Time-resolved fluorescence resonance energy transfer (TR-FRET) kinase assay (standard or low volume); type: biochemical; set-up: key: Compounds are considered active in this assay if they demonstrate a pIC50 of greater than 4.6 up to about a pIC50 of greater than 10.0; details: MKK6-activated p38α 100 pM, GST-ATF2 400 nM, 120 minutes at room temperature; either assay format
T1 construct: His; made in house
T1 sequence (Q16539 whole entry): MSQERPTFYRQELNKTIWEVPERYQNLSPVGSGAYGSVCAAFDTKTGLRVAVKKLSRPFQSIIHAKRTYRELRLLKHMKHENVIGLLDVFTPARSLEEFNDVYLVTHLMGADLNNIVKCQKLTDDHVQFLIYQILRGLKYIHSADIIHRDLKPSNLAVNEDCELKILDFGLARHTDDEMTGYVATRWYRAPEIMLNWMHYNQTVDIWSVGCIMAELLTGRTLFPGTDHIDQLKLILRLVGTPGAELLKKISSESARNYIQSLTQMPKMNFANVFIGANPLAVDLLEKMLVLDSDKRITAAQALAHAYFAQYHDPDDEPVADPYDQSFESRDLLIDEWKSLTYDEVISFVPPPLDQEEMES
Protocol: It is noted that there are two assay formats shown above for the Fluorescence anisotropy kinase binding assay. The only difference between these two assays is the volume used and the plate type. […] The results described herein may have been performed in either assay format and are not differentiated as to which. […] TR-FRET Assay Time-Resolved Fluorescence Resonance Energy Transfer Kinase Standard Assay Recombinant human p38α was expressed as a His-tagged protein. To activate this protein, 3 μM unactivated p38α was incubated in 200 mM Hepes pH 7.4, 625 mM NaCl, 1 mM DTT with 27 nM active MKK6 (Upstate), 1 mM ATP and 10 mM MgCl2 The activity of the MKK6-activated p38α was assessed using a time-resolved fluorescence resonance energy transfer (TR-FRET) assay. Biotinylated-GST-ATF2 (residues 19-96, 400 nM final), ATP ([…]) and MgCl2 (5 mM final) in assay buffer (40 mM HEPES pH 7.4, 1 mM DTT) were added to wells containing 1 ul of various concentrations of compound or DMSO vehicle (3% final) in NUNC 384 well black plate. The reaction was initiated by the addition of MKK6-activated p38 (100 pM final) to give a total volume of 30 ul. The reaction was incubated for 120 minutes at room temperature, then terminated by the addition of 15 μl of 100 mM EDTA pH 7.4. Detection reagent (15 μl) in buffer (100 mM HEPES pH 7.4, 150 mM NaCl, 0.1% w/v BSA, 1 mM DTT) containing antiphosphothreonine-ATF2-71 polyclonal antibody (Cell Signalling Technology, Beverly Mass., USA) labelled with W-1024 europium chelate (Wallac OY, Turku, Finland), and APC-labelled streptavidin (Prozyme, San Leandro, Calif., USA) was added and the reaction was further incubated for 60 minutes at room temperature. The degree of phosphorylation of GST-ATF2 was measured using a Packard Discovery plate reader (Perkin-Elmer Life Sciences, Pangbourne, UK) as a ratio of specific 665 nm energy transfer signal to reference europium 620 nm signal. Time-Resolved Fluorescence Resonance Energy Transfer Kinase Low Volume Assay Recombinant human p38α was expressed as a His-tagged protein. To activate this protein, 3 μM unactivated p38α was incubated in 200 mM Hepes pH7.4, 625 mM NaCl, 1 mM DTT with 27 nM active MKK6 (Upstate), 1 mM ATP and 10 mM MgCl2 The activity of the MKK6-activated p38α was assessed using a time-resolved fluorescence resonance energy transfer (TR-FRET) assay. Biotinylated-GST-ATF2 (residues 19-96, 400 nM final), ATP (125 μM final) and MgCl2 ([…]) in assay buffer (40 mM HEPES pH 7.4, 1 mM DTT) were added to wells containing 0.1 μl of various concentrations of compound or DMSO vehicle (1.7% final) in Greiner low volume 384 well black plate. The reaction was initiated by the addition of MKK6-activated p38α (100 pM final) to give a total volume of 6 μl. The reaction was incubated for 120 minutes at room temperature, then terminated by the addition of 3 μl of detection reagent in buffer (100 mM HEPES pH 7.4, 150 mM NaCl, 0.1% w/v BSA, 1 mM DTT, 100 mM EDTA) containing antiphosphothreonine-ATF2-71 polyclonal antibody (Cell Signalling Technology, Beverly Mass., USA) labelled with W-1024 europium chelate (Wallac OY, Turku, Finland), and APC-labelled streptavidin (Prozyme, San Leandro, Calif., USA). The reaction was further incubated for 60 minutes at room temperature. The degree of phosphorylation of GST-ATF2 was measured using a BMG Rubystar plate reader (BMG, UK) as a ratio of specific 665 nm energy transfer signal to reference europium 620 nm signal. It is noted that there are two assay formats shown above for the Time-resolved fluorescence resonance energy transfer kinase assay. The only difference between these two assays is the volume used and the plate type. […] The results described herein may have been performed in either assay format and are not differentiated as to which. […] For purposes herein the HTRF assay and the Fluorescence anisotropy kinase binding assay: […]

| SMILES | inhibition of neutrophilia (neutrophil levels in lung lavage relative to no compound controls) [1] | pIC50, reported as active [2] | melting point |
| --- | --- | --- | --- |
| Cc1ccc(C(=O)Nc2nccs2)cc1-c1nc(NCc2ncc[nH]2)nc2c1ccc(=O)n2-c1c(F)cccc1F [79(c), 3-{8-(2,6-difluorophenyl)-2-[(1H-imidazol-2-ylmethyl)amino]-7-oxo-7,8-dihydropyrido[2,3-d]pyrimidin-4-yl}-4-methyl-N-1,3-thiazol-2-ylbenzamide] | statistically significant inhibition | active | – |
| Cc1ccc(C(=O)Nc2ccc(F)cc2)cc1-c1nc(NCCN(C)C)nc2c1ccc(=O)n2-c1c(F)cccc1F [Example 112, 3-(8-(2,6-difluorophenyl)-2-{[2-(dimethylamino)ethyl]amino}-7-oxo-7,8-dihydropyrido[2,3-d]pyrimidin-4-yl)-N-(4-fluorophenyl)-4-methylbenzamide] | statistically nonsignificant inhibition | active | – |
| Cc1ccc(NC(=O)c2ccsc2)cc1-c1nc(NC2CC(C)(C)NC(C)(C)C2)nc2c1ccc(=O)n2-c1c(F)cccc1F [31(e), N-(3-{8-(2,6-difluorophenyl)-7-oxo-2-[(2,2,6,6-tetramethyl-4-piperidinyl)amino]-7,8-dihydropyrido[2,3-d]pyrimidin-4-yl}-4-methylphenyl)-3-thiophenecarboxamide] | statistically significant inhibition | active | – |
| CNCCNc1nc(-c2cc(C(=O)NC(C)C)ccc2C)c2ccc(=O)n(-c3c(F)cccc3F)c2n1 [Example 57, 3-(8-(2,6-difluorophenyl)-2-{[2-(methylamino)ethyl]amino}-7-oxo-7,8-dihydropyrido[2,3-d]pyrimidin-4-yl)-4-methyl-N-(1-methylethyl)benzamide] | statistically significant inhibition | active | – |
| CCC(C)NC(=O)c1ccc(C)c(-c2nc(NCCCN(CC)CC)nc3c2ccc(=O)n3-c2c(F)cccc2F)c1 (stereo not shown) [Example 162, 3-[2-{[3-(diethylamino)propyl]amino}-8-(2,6-difluorophenyl)-7-oxo-7,8-dihydropyrido[2,3-d]pyrimidin-4-yl]-4-methyl-N-(1-methylpropyl)benzamide] | statistically nonsignificant inhibition | active | – |
| Cc1ccc(C(=O)Nc2nccs2)cc1-c1nc(NCCN(C)C)nc2c1ccc(=O)n2-c1c(F)cccc1F [Example 109, 3-(8-(2,6-difluorophenyl)-2-{[2-(dimethylamino)ethyl]amino}-7-oxo-7,8-dihydropyrido[2,3-d]pyrimidin-4-yl)-4-methyl-N-1,3-thiazol-2-ylbenzamide] | statistically significant inhibition | active | – |
| Cc1ccc(C(=O)Nc2ccc(F)cc2)cc1-c1nc(NCc2ncc[nH]2)nc2c1ccc(=O)n2-c1c(F)cccc1F [Example 78] | statistically significant inhibition | active | – |
| Cc1ccc(C(=O)NC(C)C)cc1-c1nc(NCCN(C)C)nc2c1ccc(=O)n2-c1c(F)cccc1F [Example 117, 3-(8-(2,6-difluorophenyl)-2-{[2-(dimethylamino)ethyl]amino}-7-oxo-7,8-dihydropyrido[2,3-d]pyrimidin-4-yl)-4-methyl-N-(1-methylethyl)benzamide] | statistically significant inhibition | active | – |
| Cc1ccc(C(=O)NCc2ccccc2)cc1-c1nc(NCc2ncc[nH]2)nc2c1ccc(=O)n2-c1c(F)cccc1F [116(c), 3-{8-(2,6-difluorophenyl)-2-[(1H-imidazol-2-ylmethyl)amino]-7-oxo-7,8-dihydropyrido[2,3-d]pyrimidin-4-yl}-4-methyl-N-(phenylmethyl)benzamide] | – | – | 185 to 190 °C (dec.) |
| Cc1ccc(C(=O)NC(C)C)cc1-c1nc(N2CCC(N3CCC(C)CC3)CC2)nc2c1ccc(=O)n2-c1c(F)cccc1F [163(c), 3-[8-(2,6-difluorophenyl)-2-(4-methyl-1,4′-bipiperidin-1′-yl)-7-oxo-7,8-dihydropyrido[2,3-d]pyrimidin-4-yl]-4-methyl-N-(1-methylethyl)benzamide] | statistically nonsignificant inhibition | active | – |
| Cc1ccc(C(=O)NC(C)C)cc1-c1nc(N(C)CCCN(C)C)nc2c1ccc(=O)n2-c1c(F)cccc1F [Example 34, 3-{8-(2,6-difluorophenyl)-2-[[3-(dimethylamino)propyl](methyl)amino]-7-oxo-7,8-dihydropyrido[2,3-d]pyrimidin-4-yl}-4-methyl-N-(1-methylethyl)benzamide] | statistically significant inhibition | active | – |
| CCCNC(=O)c1ccc(C)c(-c2nc(NCCNC)nc3c2ccc(=O)n3-c2c(F)cccc2F)c1 [56(d), 3-(8-(2,6-difluorophenyl)-2-{[2-(methylamino)ethyl]amino}-7-oxo-7,8-dihydropyrido[2,3-d]pyrimidin-4-yl)-4-methyl-N-propylbenzamide] | statistically significant inhibition | active | – |
| CNC1CCN(c2nc(-c3cc(C(=O)NC(C)C)ccc3C)c3ccc(=O)n(-c4c(F)cccc4F)c3n2)CC1 [113(b), 3-{8-(2,6-difluorophenyl)-2-[4-(methylamino)-1-piperidinyl]-7-oxo-7,8-dihydropyrido[2,3-d]pyrimidin-4-yl}-4-methyl-N-(1-methylethyl)benzamide] | statistically nonsignificant inhibition | active | – |
| Cc1ccc(C(=O)Nc2ccc(F)cc2)cc1-c1nc(NC2CC(C)(C)NC(C)(C)C2)nc2c1ccc(=O)n2-c1c(F)cccc1F [Example 66, 3-{8-(2,6-difluorophenyl)-7-oxo-2-[(2,2,6,6-tetramethyl-4-piperidinyl)amino]-7,8-dihydropyrido[2,3-d]pyrimidin-4-yl}-N-(4-fluorophenyl)-4-methylbenzamide] | statistically significant inhibition | active | – |
| CCN(CC)CCCNc1nc(-c2cccc(C(=O)Nc3nccs3)c2C)c2ccc(=O)n(-c3c(F)cccc3F)c2n1 [150(d), 3-[2-{[3-(diethylamino)propyl]amino}-8-(2,6-difluorophenyl)-7-oxo-7,8-dihydropyrido[2,3-d]pyrimidin-4-yl]-2-methyl-N-1,3-thiazol-2-ylbenzamide] | – | active | – |
